What was measured:
Format in all cases: in vivo, C57BL/6 mice
[1] = test system: CT2A tumors; assay: Flow cytometry of tumor-derived immune cells, CT2A tumors; settings: for CD45+CD3+CD8+CD69+ activated T cells / CD45+CD3+CD8+IFN-γ+ activated T cells: CT2A tumors
Protocol: (§1) Mice and Intracranial Xenograft Tumor Models. Female C57BL/6 mice at 3 to 4 weeks of age were purchased from the Jackson Laboratory (#0000664). All animals were grouped by 5 mice per cage and maintained in IVC System (San Diego, CA) for a week before the experiment. All animal experiments were performed with the approval of the Institutional Animal Care and Use Committee (IACUC) at Northwestern University. The intracranial xenograft tumor models were established previously. In brief, mice were anesthetized by isoflurane through IMPAC6 Anesthesia System. Then a dental drill was used to open a small hole in the skull of mice 1.2 mm anterior and 3.0 mm lateral to the bregma. Mice were placed into the stereotactic apparatus, and 5 μL 005 GSC, CT2A, or GL261 cells in FBS-free culture medium were injected into the right caudate nucleus 3 mm below the surface of the brain using a 10 μL Hamilton syringe with an unbeveled 30-gauge needle. The incision was closed using Vetbond glue. Meloxicam (20 mg/kg, daily) was subcutaneously injected for pain relief for 3 days after surgery. Mice received the treatment with BAPN (2 g/L in drinking water) on day 4, SR9009 (100 mg/kg body weight, i.p.) daily for 10 days beginning at day 7 post-orthotopic injection, anti-PD1 (10 mg/kg body weight, i.p.) on days 11, 14, and 17 post-orthotopic injection, and/or clodronate liposomes (200 μL, once every 3 days) starting at day 4 post-orthotopic injection. Mice with neurological deficits or moribund appearance were sacrificed according to the IACUC protocol. At the end of the experiment, the brains of mice were collected, either fixed in 4% paraformaldehyde (PFA) (ThermoFisher Scientific, #J61899.AK) after transcardiac perfusion with PBS for optimal cutting temperature (OCT)-cryosectioning or processed using the percoll density gradient cell separation method to isolate tumor-derived immune cells for flow cytometry analysis.
(§2) Tumor-derived immune cells isolation. Mice with neurologic deficits or moribund appearance were sacrificed to harvest their brains. Immune cells in the brain tumors were isolated using the percoll density gradient cell separation method as previously described. In brief, after perfusion with PBS, brains were homogenized on ice with pre-cold 10 mL HBSS. Then cells were spun down at 1,500 rpm for 10 minutes at 4° C., and were resuspended in 30% Percoll (GE Healthcare, #17-0891-01). The solution was gently laid on top of the 70% Percoll and centrifuged at 1,200 g for 30 minutes at 4° C. with accelerator 7 and breaker 0. After removing myelin and debris, the interphase was collected and centrifuged at 1,500 rpm for 10 minutes at 4° C. The cell pellet was resuspended for further analysis.
Flow cytometry. The single-cell suspensions were incubated with fixable viability dye (Invitrogen, #5211229035) on ice for 10 minutes. After washing with FACS buffer, cells were incubated with the TruStain FcX (anti-mouse CD16/32) Antibody (BioLegend, #103132) and True-Stain Monocyte Blocker (BioLegend, #426102) in 5% BSA for 30 minutes on ice to block Fc receptors and non-specific binding of the cyanine acceptor fluorophores. Different antibody cocktails, including Percp/Cy5.5 anti-mouse CD45 (BioLegend, […]), AF488 anti-mouse CD3 (BioLegend, #100210), BV711 anti-mouse CD8 (BioLegend, #100747), PE/Cy7 anti-mouse CD69 (BioLegend, #104512), APC/Cy7 anti-mouse IFN-γ (BioLegend, #505850), PE/Cy7 anti-mouse/human CD11b (BioLegend, #101216), PE anti-mouse CD68 (BD Bioscience, #566386), and BV421 anti-mouse CX3CR1 (BD Bioscience, #567531) were added to the samples and incubated for 30 minutes on ice. After washing with FACS buffer, cells were incubated with fixation buffer (BioLegend, #420801) overnight. Samples were read through the BD FACSymphony or BD LSRFortessa flow cytometer and analyzed in FlowJo v10.8.1.

[2] = test system: 005 GSC tumors; assay: Flow cytometry of tumor-derived immune cells, 005 GSC tumors
Protocol: as §1
as §2, with “The cell pellet was resuspended for further analysis.” left out
Flow cytometry. […] Samples were read through the BD FACSymphony or BD LSRFortessa flow cytometer and analyzed in FlowJo v10.8.1.

[3] = test system: CT2A tumors; assay: Immunofluorescence staining of CT2A tumors; settings: for intratumoral CD4+ T cells / intratumoral CD8+ T cells / intratumoral activated CD8+ (CD8+CD69+) T cells: CT2A model, BAPN 2 g/L in drinking water from day 4, SR9009 100 mg/kg i.p. daily for 10 days from day 7; for CX3CR1+ microglia in tumors / F4/80+ macrophages in tumors: CT2A tumors vs control, BAPN 2 g/L drinking water or SR9009 100 mg/kg i.p. daily 10 days
Protocol: as §1
Immunofluorescence. Immunofluorescence was performed using a standard protocol that was previously established. In brief, slides from cryosections were kept at room temperature for 30 minutes and fixed in 10% PFA for 30 minutes prior to permeabilization. Then, 0.25% Triton X-100 in PBS was added for 30 minutes at room temperature to permeabilize the cell membrane. After three times PBS washing, sections were blocked by 5% goat serum for 30 minutes. Specimens were incubated with primary antibody for 1 hour at room temperature and then overnight at 4° C. Then, the unbound primary antibodies were washed out by three times PBS for 3 minutes each and corresponding secondary antibody cocktails were prepared and added to the sections for 1 hour incubation. Cell nuclear was counterstained with DAPI/anti-fade mounting medium (Vector Laboratories, #H-1200-10). Immunofluorescence images were captured using Nikon AX/AX R Confocal Microscope System with an apo 60 1.40 Oil 160/0.17 objective in the Center for Advanced Microscopy (CAM) at Northwestern University. The relative intensity of the protein signal was determined by Image J. For one slide, 3-5 fields of images were captured randomly, and the intensity of the protein signal was determined by Image J. The average quantified value of these 3-5 fields was represented as the protein signal intensity of one sample and presented as the individual point in the bar graph. Antibodies specific to CD8 (Invitrogen, #PA5-81344), CD69 (Santa Cruz Biotechnology, #sc-373799), CX3CR1 (Invitrogen, #702321), F4/80 (Cell Signaling Technology, #30325S), OLFML3 (Invitrogen, #702321), Ki67 (Cell Signaling Technology, #9129S), and CC3 (Cell Signaling Technology, #9661S) were used.

[4] = size matched CT2A tumors, BAPN 2 g/L in drinking water

## N#CCCN [BAPN, β-aminopropionitrile]
[1]
  CD45+CD3+CD8+CD69+ activated T cells: Increases
  CD45+CD3+CD8+IFN-γ+ activated T cells: Increases
[1]; [4]
  CD45highCD11b+CD68+ macrophages: decreased
  CD45lowCD11b+CX3CR1+ microglia: increased
[2]
  CD45+CD3+CD8+CD69+ activated T cells: Increases
  CD45+CD3+CD8+IFN-γ+ activated T cells: Increases
[3]
  intratumoral CD4+ T cells: increased
  intratumoral CD8+ T cells: increased
  intratumoral activated CD8+ (CD8+CD69+) T cells: increased
  CX3CR1+ microglia in tumors: higher
  F4/80+ macrophages in tumors: lower

## CCOC(=O)N1CCC(CN(Cc2ccc(Cl)cc2)Cc2ccc([N+](=O)[O-])s2)C1 (centres unmarked) [SR9009]
[1]
  CD45+CD3+CD8+CD69+ activated T cells: Increases
  CD45+CD3+CD8+IFN-γ+ activated T cells: Increases
[2]
  CD45+CD3+CD8+CD69+ activated T cells: Increases
  CD45+CD3+CD8+IFN-γ+ activated T cells: Increases
[3]
  intratumoral CD4+ T cells: increased
  intratumoral CD8+ T cells: increased
  intratumoral activated CD8+ (CD8+CD69+) T cells: increased
  CX3CR1+ microglia in tumors: reduced
  F4/80+ macrophages in tumors: did not affect

From patent US20250186396A1, “COMPOSITIONS AND METHODS FOR THE TREATMENT OF GLIOBLASTOMA WITH A DUAL TARGETING ANTI-TUMOR COMPOSITION” (Northwestern University, priority 2023, published 2025)
